Source: patent US20080242649A1, “New Combination 665” (priority 2007, published 2008)
Structures can show the parent of a compound that is named as a salt.

Assays:
Adrenergic β2 = target: T1, Adrenergic β2 (Homo sapiens, UniProt P07550); experiment: Adrenergic β2 mediated cAMP production in H292 cells (AlphaScreen); type: cell-based
T1 construct: Adherent H292 cells were removed from tissue culture flasks; endogenous in cells; host or cells: H292 cells
Experimental: Adrenergic β2 mediated cAMP production
H292 cells were grown in 225 cm2 flasks incubator at 37° C., 5% CO2 in RPMI medium containing, 10% (v/v) FBS (foetal bovine serum) and 2 mM L-glutamine.
Adherent H292 cells were removed from tissue culture flasks by treatment with Accutase™ cell detachment solution for 15 minutes. Flasks were incubated for 15 minutes in a humidified incubator at 37° C., 5% CO2. Detached cells were re-suspended in RPMI media (containing 10% (v/v) FBS and 2 mM L-glutamine) at 0.05×10^6 cells per mL. 5000 cells in 100 μL were added to each well of a tissue-culture-treated 96-well plate and the cells incubated overnight in a humidified incubator at 37° C., 5% CO2. The culture media was removed and cells were washed twice with 100 μL assay buffer and replaced with 50 μL assay buffer (HBSS solution containing 10 mM HEPES pH7.4 and 5 mM glucose). […]
The concentration of cAMP (cyclic adenosine monophosphate) in the cell lysate was determined using AlphaScreen™ methodology. […] The AlphaScreen™ signal was measured using an EnVision spectrophotometer (Perkin-Elmer Inc.) with the recommended manufacturer's settings. cAMP concentrations were determined by reference to a calibration curve determined in the same experiment using standard cAMP concentrations. […] Intrinsic Activity was expressed as a fraction relative to the maximum activity determined for formoterol in each experiment. […]

[1] = test system: methacholine-induced bronchoconstriction; experiment: Lung function in anaesthetized guinea-pigs, methacholine challenge; type: in vivo, Dunkin-Hartley guinea pig; details: for inhibition of methacholine-induced bronchoconstriction: methacholine 5 μg/kg i.v.; for increase in resistance: methacholine 5 μg/kg, vehicle 1898±211%
Experimental: Evaluation of Lung Function in Anaesthetized Guinea-Pigs
Male Dunkin-Hartley guinea pigs (300-600 g) were weighed and dosed with vehicle (0.05M phosphate, 0.1% Tween 80, 0.6% saline, pH 6) or compound via the intratracheal route under recoverable gaseous anaesthesia (5% halothane in oxygen). Animals were dosed with compound or vehicle two hours prior to the administration of histamine or methacholine.
Guinea pigs were anaesthetized with pentobarbitone (1 mL/kg of 60 mg/mL solution i.p.) approximately 30 minutes prior to the first bronchoconstrictor administration. The trachea was cannulated and the animal ventilated using a constant volume respiratory pump (Harvard Rodent Ventilator model 683) at a rate of 60 breath/min and a tidal volume of 5 ml/kg. A jugular vein was cannulated for the administration of histamine, methacholine or maintenance anaesthetic (0.1 mL of pentobarbitone solution, 60 mg/mL, as required).
The animals were transferred to a Flexivent System (SCIREQ, Montreal, Canada) in order to measure airway resistance. The animals were ventilated (quasi-sinusoidal ventilation pattern) at 60 breaths/min at a tidal volume of 5 mL/kg. A positive end expiratory pressure of 2-3 cmH2O was applied. Respiratory resistance was measured using the Flexivent “snapshot” facility (1 second duration, 1 Hz frequency). Once stable baseline resistance value had been obtained the animals were given histamine or methacholine in ascending doses (0.5, 1, 2, 3 and 5 μg/kg, i.v.) at approximately 4-minute intervals via the jugular catheter. After each administration of bronchoconstrictor the peak resistance value was recorded. Guinea pigs were euthanized with approximately 1.0 mL pentobarbitone sodium (Euthatal) intravenously after the completion of the lung function measurements. Percentage bronchoprotection produced by a compound was calculated at each dose of brochoconstrictor as follows:
Where % change Rveh is the mean of the maximum percentage change in airway resistance in the vehicle treated group. The results reported were measured after 5 μg/kg histamine or methacholine and were expressed as percentage bronchoprotection (mean ±s.e.mean).

guinea pig trachea = experiment: Bronchodilator onset in guinea pig isolated tracheal ring contracted with methacholine
Experimental: Evaluation of Bronchodilator Activity in the Guinea Pig Isolated Tracheal Ring Preparation
Guinea pigs (300-500 g) were killed by cervical dislocation and the trachea was isolated. The trachea was cut into segments 2-3 cartilage rings in width and suspended in 10 ml organ baths in modified Krebs' solution (mM; NaCl, 90; NaHCO3, 45; KCl, 5; MgSO4.7H2O, 0.5; Na2HPO4.2H2O, 1; CaCl2, 2.25; glucose, 10; pH 7.4) gassed with 5% CO2, 95% […] at 37° C.). The tracheal rings were attached to an isometric force transducer for the measurement of isometric tension. The tissues were washed and a force of 1 g was applied to each tissue. The rings were contracted with methacholine (1 μM). Once the contraction had reached a plateau, vehicle (0.01% DMSO in distilled H2O), compound A (3 nM), roflumilast (1 μM) or a combination of compound A (3 nM) and roflumilast (1 μM) was added and the tissue left until the response had reached a plateau. Data were collected using the Chart 4 software (ADInstruments, Charlgrove, UK). The time to 90% of the maximum effect of the bronchodilator (onset time) was measured and expressed in min (mean ±s.e.mean).

T1 sequence (P07550 whole entry): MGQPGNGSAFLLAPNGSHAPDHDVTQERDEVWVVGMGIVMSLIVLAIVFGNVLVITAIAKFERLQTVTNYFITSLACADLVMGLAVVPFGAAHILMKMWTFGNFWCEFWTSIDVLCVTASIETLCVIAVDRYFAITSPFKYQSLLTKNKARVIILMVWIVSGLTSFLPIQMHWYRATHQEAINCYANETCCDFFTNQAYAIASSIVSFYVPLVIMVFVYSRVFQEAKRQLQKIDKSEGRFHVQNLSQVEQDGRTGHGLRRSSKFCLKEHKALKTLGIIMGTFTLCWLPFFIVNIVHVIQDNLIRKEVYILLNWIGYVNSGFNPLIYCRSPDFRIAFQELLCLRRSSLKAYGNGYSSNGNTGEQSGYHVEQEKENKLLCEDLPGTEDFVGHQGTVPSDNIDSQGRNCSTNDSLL

SMILES: CCN(CC)CCN(CCNCCc1ccc(O)c2[nH]c(=O)sc12)C(=O)CCOCCc1cccc2ccccc12 [Compound A, N-[2-(Diethylamino)ethyl]-N-(2-{[2-(4-hydroxy-2-oxo-2,3-dihydro-1,3-benzothiazol-7-yl)ethyl]amino}ethyl)-3-[2-(1-naphthyl)ethoxy]propanamide dihydrobromide]
- EC50 (Adrenergic β2; H292 cells, cAMP, 300 μM rolipram, read-out: β2 pEC50 (converted)): 6.31 nM
- β2 Int Act (Adrenergic β2; Intrinsic Activity as fraction relative to maximum activity of formoterol): 0.8
- inhibition of methacholine-induced bronchoconstriction ([1]; compound A 1 μg/kg intratracheal 2 h before): 15%
- increase in resistance ([1]; compound A 1 μg/kg intratracheal): 1619±235%
- inhibition of methacholine-induced bronchoconstriction ([1]; compound A 27 μg/kg intratracheal 2 h before): 82%
- increase in resistance ([1]; compound A 27 μg/kg intratracheal): 347±71%
- onset time (time to 90% of the maximum effect) (guinea pig trachea; Compound A 3 nM in the presence of roflumilast 1 μM): 5.7 ± 1.0 min
- onset time (time to 90% of the maximum effect) (guinea pig trachea; compound A 3 nM alone, methacholine 1 μM contraction, mean ±s.e.mean): 16 ± 3.0 min
